SMILES strings stand for the structures. Active and inactive are the calls of the source. No cut-off for these calls is given here. Some results are limits rather than exact numbers.

For 37 compounds, IC50 and Activity results are on record in ChEMBL document CHEMBL5380807, “Imidazo[1,2-a]Pyridine Derivatives as Novel Dual-Target Inhibitors of ABCB1 and ABCG2 for Reversing Multidrug Resistance” (J Med Chem, 2023).

The nature of data set [1]: Cytotoxicity against human K562/A02 cells overexpressing ABCB1 assessed as decrease in cell survival rate incubated for 72 hrs by MTS assay. It is filed as toxicity, cell-based.
Data set [2] in a line: Cytotoxicity against human K562 cells assessed as decrease in cell survival rate incubated for 72 hrs by MTS assay. The data set is classed as toxicity, cell-based.
For a further data set, the system named is K562/A02. Briefly: Reversal of ABCB1 mediated adriamycin resistance in human K562/A02 overexpressing ABCB1 assessed as decrease in survival rate at 1.25 to 5 uM preincubated for 1 hrs followed by adriamycin addition and measured after 72 hrs by MTS assay. The data set is classed as functional, cell-based. To be noted: dose 1.25-5 µM, time 73.0 hrs.
The next data set concerns K562. Put plainly: Reversal of ABCB1 mediated adriamycin resistance in human K562 assessed as decrease in survival rate at 1.25 to 5 uM preincubated for 1 hrs followed by adriamycin addition and measured after 72 hrs by MTS assay. It is filed as functional, cell-based. To be noted: dose 1.25-5 µM, time 73.0 hrs.

Take `COc1cc2c(cc1OC)CN(Cc1c(-c3ccc(NC(=O)COc4cccc5cccnc45)cc3)nc3ccccn13)CC2`: the IC50 at 72 h in data set [1] and in data set [2] was over 100 µM each time.
`COc1cc(/C=C/C(=O)Nc2ccc(-c3nc4ccccn4c3CN3CCN(c4ccccc4)CC3)cc2)cc(OC)c1OC`: the outcome in the data set on K562/A02 was Active. Besides, the outcome with K562 was inactive. The IC50 at 72 h in data set [1] and in data set [2] was over 100 µM each time.
Regarding `COc1cccc(OCC(=O)Nc2ccc(-c3nc4ccccn4c3CN3CCc4cc(OC)c(OC)cc4C3)cc2)c1`, the IC50 at 72 h in data set [1] and in data set [2] was over 100 µM in each case.
Regarding `Cc1cccc(/C=C/C(=O)Nc2ccc(-c3nc4ccccn4c3CN3CCN(c4ccccc4)CC3)cc2)c1`, the IC50 at 72 h in data set [1] and in data set [2] was over 100 µM each time.
With `O=C(CCn1cnnc1)Nc1ccc(-c2nc3ccccn3c2CN2CCN(c3ccccc3)CC2)cc1`, the IC50 at 72 h in data set [1] and in data set [2] was over 100 µM each time.
With `COc1cc2c(cc1OC)CN(Cc1c(-c3ccc(NC(=O)CCN4CCN(c5ccccc5)CC4)cc3)nc3ccccn13)CC2`, the IC50 at 72 h in data set [1] was found to be 30.6 µM; in data set [2], 93.1 µM.
On to `COc1cc2c(cc1OC)CN(Cc1c(-c3ccc(NC(=O)CN(C)C)cc3)nc3ccccn13)CC2`, for which the 50% inhibitory concentration (IC50) at 72 h in data set [1] and in data set [2] was over 100 µM throughout.
As to `COc1cc2c(cc1OC)CN(Cc1c(-c3ccc(NC(=O)COc4ccccc4)cc3)nc3ccccn13)CC2`, the outcome with K562/A02 was Active. Besides, the outcome in the data set on K562 was inactive. Also, the IC50 at 72 h in data set [1] and in data set [2] was over 100 µM throughout.
In the case of `O=C(/C=C/c1ccc(F)cc1)Nc1ccc(-c2nc3ccccn3c2CN2CCN(c3ccccc3)CC2)cc1`, in the data set with K562/A02, the outcome was Active. Besides, in the data set on K562, the result was inactive. Further, the half-maximal inhibitory concentration (IC50) at 72 h in data set [1] and in data set [2] was over 100 µM in each case.
Take `O=C(Cn1cnnc1)Nc1ccc(-c2nc3ccccn3c2CN2CCN(c3ccccc3)CC2)cc1`: the IC50 at 72 h in data set [1] and in data set [2] was over 100 µM in each case.
For `COc1cc2c(cc1OC)CN(Cc1c(-c3ccc(NC(=O)CN4CCN(C)CC4)cc3)nc3ccccn13)CC2`, the half-inhibitory concentration (IC50) at 72 h in data set [1] was over 100 µM; in data set [2], 50.7 µM.
Take `O=C1CCN1c1ccc(-c2nc3ccccn3c2CN2CCN(c3ccccc3)CC2)cc1`: the values for the IC50 at 72 h in data set [1] and in data set [2] were 45.5 µM and 10.5 µM, respectively.
As to `COc1cc2c(cc1OC)CN(Cc1c(-c3ccc(NC(=O)COc4ccc(C)cc4)cc3)nc3ccccn13)CC2`, the result with K562/A02 was Active. The outcome with K562 was inactive. Further, the IC50 at 72 h in data set [1] and in data set [2] was over 100 µM throughout.
`COc1cc2c(cc1OC)CN(Cc1c(-c3ccc(NC(=O)CN4CCOCC4)cc3)nc3ccccn13)CC2`: the IC50 at 72 h in data set [1] and in data set [2] was over 100 µM in each case.
Turning to `CCN(CC)CC(=O)Nc1ccc(-c2nc3ccccn3c2CN2CCc3cc(OC)c(OC)cc3C2)cc1`, the half-inhibitory concentration (IC50) at 72 h in data set [1] and in data set [2] was over 100 µM throughout.
Turning to `COc1cc2c(cc1OC)CN(Cc1c(-c3ccc(NC(=O)CN4CCN(c5ccc(OC(F)(F)F)cc5)CC4)cc3)nc3ccccn13)CC2`, the IC50 at 72 h in data set [1] amounted to 81.2 µM; in data set [2], 83.7 µM.
Consider `COc1cc2c(cc1OC)CN(Cc1c(-c3ccc(NC(=O)/C=C/c4cc(OC)c(OC)c(OC)c4)cc3)nc3ccccn13)CC2`, for which the half-inhibitory concentration (IC50) at 72 h in data set [1] and in data set [2] was over 100 µM each time.
With `COc1cc2c(cc1OC)CN(Cc1c(-c3ccc(NC(=O)Cn4cnnc4)cc3)nc3ccccn13)CC2`, the half-maximal inhibitory concentration (IC50) at 72 h in data set [1] and in data set [2] was over 100 µM in each case.
For `COc1ccc(OCC(=O)Nc2ccc(-c3nc4ccccn4c3CN3CCc4cc(OC)c(OC)cc4C3)cc2)cc1`, the IC50 at 72 h in data set [1] and in data set [2] was over 100 µM in each case.
On to `O=C(CCN1CCN(c2ccccc2)CC1)Nc1ccc(-c2nc3ccccn3c2CN2CCN(c3ccccc3)CC2)cc1`, for which, in the data set with K562/A02, the result was Active. Besides, the outcome in the data set on K562 was inactive. The IC50 at 72 h was determined as 22.9 µM in data set [1] and 58.8 µM in data set [2].
As to `COc1cc2c(cc1OC)CN(Cc1c(-c3ccc(NC(=O)CN4CCN(c5ccccc5)CC4)cc3)nc3ccccn13)CC2`, the half-inhibitory concentration (IC50) at 72 h in data set [1] and in data set [2] was over 100 µM each time.
`O=C1CCCN1c1ccc(-c2nc3ccccn3c2CN2CCN(c3ccccc3)CC2)cc1`: the IC50 at 72 h in data set [1] and in data set [2] was over 100 µM throughout.
Turning to `O=C(/C=C/c1ccc(Cl)cc1)Nc1ccc(-c2nc3ccccn3c2CN2CCN(c3ccccc3)CC2)cc1`, the concentration for half-maximal inhibition (IC50) at 72 h in data set [1] and in data set [2] was over 100 µM in each case.
As to `CN(C)CC(=O)Nc1ccc(-c2nc3ccccn3c2CN2CCN(c3ccccc3)CC2)cc1`, the values for the 50% inhibitory concentration (IC50) at 72 h in data set [1] and in data set [2] were 51.2 µM and 25.2 µM, respectively.
As to `COc1cc2c(cc1OC)CN(Cc1c(-c3ccc(NC(=O)COc4ccccc4Br)cc3)nc3ccccn13)CC2`, the half-inhibitory concentration (IC50) at 72 h in data set [1] and in data set [2] was over 100 µM in each case.
Turning to `O=C(/C=C/c1ccccc1)Nc1ccc(-c2nc3ccccn3c2CN2CCN(c3ccccc3)CC2)cc1`, the IC50 at 72 h in data set [1] and in data set [2] was over 100 µM in each case.
Take `CN1CCN(CC(=O)Nc2ccc(-c3nc4ccccn4c3CN3CCN(c4ccccc4)CC3)cc2)CC1`: the IC50 at 72 h in data set [1] is 54.6 µM; in data set [2], 21.4 µM.
Take `O=C(CNCc1ccccc1)Nc1ccc(-c2nc3ccccn3c2CN2CCN(c3ccccc3)CC2)cc1`: the result in the data set with K562/A02 was Active. In the data set with K562, the outcome was inactive. Also, the IC50 at 72 h in data set [1] stood at 28.8 µM; in data set [2], 25.8 µM.
`Cc1ccc(/C=C/C(=O)Nc2ccc(-c3nc4ccccn4c3CN3CCN(c4ccccc4)CC3)cc2)cc1`: the IC50 at 72 h is over 100 µM in data set [1] and 32.8 µM in data set [2].
`COc1cc2c(cc1OC)CN(Cc1c(-c3ccc(NC(=O)COc4ccc(Cl)cc4)cc3)nc3ccccn13)CC2`: the result in the data set on K562/A02 was Active. For the same compound, the result in the data set with K562 was inactive. For the same compound, the values for the half-maximal inhibitory concentration (IC50) at 72 h in data set [1] and in data set [2] were 83 µM and over 100 µM, respectively.
`O=C(/C=C/c1ccc([N+](=O)[O-])cc1)Nc1ccc(-c2nc3ccccn3c2CN2CCN(c3ccccc3)CC2)cc1`: the IC50 at 72 h was determined as 48.7 µM in data set [1] and 10.7 µM in data set [2].
Turning to `CCN(CC)CC(=O)Nc1ccc(-c2nc3ccccn3c2CN2CCN(c3ccccc3)CC2)cc1`, the IC50 at 72 h in data set [1] is 40 µM; in data set [2], 24.3 µM.
In the case of `COc1cc2c(cc1OC)CN(Cc1c(-c3ccc(NC(=O)COc4cccc([N+](=O)[O-])c4)cc3)nc3ccccn13)CC2`, the IC50 at 72 h in data set [1] and in data set [2] was over 100 µM in each case.
Consider `COc1cc2c(cc1OC)CN(Cc1c(-c3ccc(NC(=O)COc4ccc(OC(F)(F)F)cc4)cc3)nc3ccccn13)CC2`, for which the concentration for half-maximal inhibition (IC50) at 72 h amounted to 40.9 µM in data set [1] and 29.9 µM in data set [2].
On to `C=CCc1ccc(OCC(=O)Nc2ccc(-c3nc4ccccn4c3CN3CCc4cc(OC)c(OC)cc4C3)cc2)c(OC)c1`, for which the IC50 at 72 h in data set [1] and in data set [2] was over 100 µM each time.
Regarding `O=C(CN1CCN(c2ccccc2)CC1)Nc1ccc(-c2nc3ccccn3c2CN2CCN(c3ccccc3)CC2)cc1`, the concentration for half-maximal inhibition (IC50) at 72 h in data set [1] and in data set [2] was over 100 µM each time.
`O=C(CN1CCOCC1)Nc1ccc(-c2nc3ccccn3c2CN2CCN(c3ccccc3)CC2)cc1`: the IC50 at 72 h in data set [1] and in data set [2] was over 100 µM each time.
